Type in all cases: functional
The test system of experiment [1] is Mycobacterium tuberculosis. Briefly: Antimycobacterial activity against mono-rifampin-resistant Mycobacterium tuberculosis TN675.
For experiment [2], the system named is Mycobacterium tuberculosis. As to the kind of experiment: Antimycobacterial activity against mono-rifampin-resistant Mycobacterium tuberculosis TN994.
In experiment [3] the test system is Mycobacterium tuberculosis. As to the kind of experiment: Antimycobacterial activity against multidrug-resistant Mycobacterium tuberculosis TN576.
For experiment [4], the system named is Mycobacterium tuberculosis. Briefly: Antimycobacterial activity against multidrug-resistant Mycobacterium tuberculosis TN702.
The subject of experiment [5] is Mycobacterium tuberculosis. As to the kind of experiment: Antimycobacterial activity against multidrug-resistant Mycobacterium tuberculosis TN715.
The subject of experiment [6] is Mycobacterium tuberculosis. As to the kind of experiment: Antimycobacterial activity against multidrug-resistant Mycobacterium tuberculosis TN768.
Experiment [7] deals with Mycobacterium tuberculosis. As to the kind of experiment: Antimycobacterial activity against multidrug-resistant Mycobacterium tuberculosis TN772.
The subject of experiment [8] is Mycobacterium tuberculosis. Briefly: Antimycobacterial activity against multidrug-resistant Mycobacterium tuberculosis TN1195.
Experiment [9] deals with Mycobacterium tuberculosis. As to the kind of experiment: Antimycobacterial activity against multidrug-resistant Mycobacterium tuberculosis TN1314.
The subject of experiment [10] is Mycobacterium tuberculosis. As to the kind of experiment: Antimycobacterial activity against multidrug-resistant Mycobacterium tuberculosis TN1618.
Experiment [11] relates to Mycobacterium tuberculosis. As to the kind of experiment: Antimycobacterial activity against multidrug-resistant Mycobacterium tuberculosis TN1811.
The test system of experiment [12] is Mycobacterium tuberculosis. As to the kind of experiment: Antimycobacterial activity against multidrug-resistant Mycobacterium tuberculosis TN2557.
Experiment [13] has as its system Mycobacterium tuberculosis. Briefly: Antimycobacterial activity against multidrug-resistant Mycobacterium tuberculosis TN565.

Our source for the MIC values is ChEMBL document CHEMBL1143399, “A small-molecule nitroimidazopyran drug candidate for the treatment of tuberculosis” (Nature, 2000).

Converted amounts (≈) assume the structure as drawn.

`NNC(=O)c1ccncc1` [ISONIAZID]: the MIC in experiment [1] and in experiment [2] was 0.03 µg/mL (≈ 0.219 µM) each time.

`O=[N+]([O-])c1cn2c(n1)OC[C@@H](OCc1ccc(OC(F)(F)F)cc1)C2` [PRETOMANID]: the MIC – broadly, the least concentration at which growth counts as inhibited – is 0.06 µg/mL (≈ 0.167 µM) in [3]; 0.25 µg/mL (≈ 0.696 µM) in experiment [4]; 0.06 µg/mL (≈ 0.167 µM) in experiment [5]; 0.06 µg/mL (≈ 0.167 µM) in experiment [6]; 0.03 µg/mL (≈ 0.0835 µM) in [7]; 0.25 µg/mL (≈ 0.696 µM) in experiment [8]. Moreover, the MIC in experiment [9] came to 0.03 µg/mL (≈ 0.0835 µM); in [10], 0.06 µg/mL (≈ 0.167 µM); in [11], 0.03 µg/mL (≈ 0.0835 µM); in experiment [12], 0.13 µg/mL (≈ 0.362 µM); in experiment [1], 0.015 µg/mL (≈ 0.0418 µM); in experiment [2], 0.03 µg/mL (≈ 0.0835 µM). In [13], this compound yielded a minimum inhibitory concentration (MIC) of 0.06 µg/mL (≈ 0.167 µM).
